What was measured:
[1] = test system: full-length TYR mRNA; experiment: TYR nested qPCR in human primary epidermal melanocytes; format: cell-based; details: 1 zM to 10 aM, 5 hours
Protocol: [Cell Culture & ASO Treatment] Primary epidermal melanocytes (Cat. Number PCS-200-013, ATCC) cells were maintained in Dermal Cell Basal Medium (Cat Number PCS-200-030, ATCC) supplemented with Adult Melanocyte Growth Kit Component (Cat. Number PCS-200-042, ATCC). Melanocytes grown in 60 mm culture dish containing 5 mL culture medium were treated with “TYR-ASO 1” at 0 zM (negative control), 1 zM, 100 zM, or 10 aM. (3 culture dishes per concentration) [RNA Extraction & cDNA Synthesis by One-step PCR] Following an incubation with “TYR-ASO 1” for 5 hours, total RNA was extracted using “RNeasy Mini Kit” (Cat. Number 74106, Qiagen) according to the manufacturer's instructions. […] NO: 147); and TYR-exon 5_reverse: (5'→3') […] [Nested PCR Amplification] […] NO: 149); and TYR-exon 3n_reverse: (5'→3') […] NO: 150)] against a Taqman probe [(5'→3') 5,6-[…] NO: 151)].

[2] = test system: 10-mer complementary DNA; experiment: Tm between PNA derivatives and 10-mer complementary DNA (N- or C-terminal); format: binding; details: uncorrected
Summary of the method: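 Tm read by UV at 260 nm for duplexes formed by annealing (90 °C for a minute, slow cooling to ambient) of equimolar 4 μM PNA and complementary 10-mer DNA targeting N- or C-terminal, in 10 mM sodium phosphate, 100 mM NaCl, pH 7.16.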

[3] = test system: mouse TYR pre-mRNA; experiment: TYR nested PCR for exon skipping in B16F10 cells; format: cell-based; details: 1 to 1,000 aM, 5 hours
Protocol: “TYR-ASO 4” was evaluated for its ability to induce the skipping of the mouse TYR exon 2 in B16F10 melanoma cells as follows. “TYR-ASO 4” may serve as a good surrogate compound for “TYR-ASO 1” which is fully complementary to the human TYR pre-mRNA. [Cell Culture & ASO Treatment] B16F10 mouse melanoma cells (Cat. Number CRL-6475, ATCC) were maintained in DMEM (Dulbecco's modified Eagle's essential minimum medium) supplemented with 10% FBS, 1% streptomycin/penicillin, and 0.01 mg/ml bovine insulin. B16F10 cells grown in 60 mm culture dish containing 5 mL DMEM were incubated for 5 hours with “TYR-ASO 4” at 0 (negative control), 1, 10, 100 or 1000 aM. [RNA Extraction & cDNA Synthesis by One-step PCR] Total RNA was extracted using “Universal RNA Extraction Kit” (Cat. Number 9767, Takara) according to the manufacturer's instructions. […] NO: 142); and TYR-exon 4_reverse: (5'→3') […] [Nested PCR Amplification] […] NO: 144); and TYR-exon 4n_reverse: (5'→3') […] [Identification of Exon Skipping Products] The PCR products were subjected to electrophoretic separation on a 2% agarose gel. The bands of target size were collected and analyzed by Sanger Sequencing.

[4] = test system: full-length TYR mRNA; experiment: TYR nested qPCR in B16F10 cells; format: cell-based, mouse; details: 1 to 1,000 aM
Protocol: [Cell Culture & ASO Treatment] B16F10 cells grown in 60 mm culture dish containing 5 mL culture medium were treated with “TYR-ASO 4” at 0 (negative control), 1, 10, 100 or 1000 aM. (2 culture dishes per dose)
[RNA Extraction & cDNA Synthesis by One-step PCR] Total RNA was extracted and subjected to cDNA synthesis as described in “TYR Example 1”.
[Nested qPCR Amplification]
[Statistical Analysis] The nested qPCR experiment was repeated independently four times, and individual mRNA levels from each experiment were normalized against the mRNA level without ASO treatment. The mRNA levels obtained from all the 4 separate experiments were pooled for statistical analysis by student's t-test. Thus the number of RNA samples is 8 per ASO concentration.

[5] = test system: TYR protein; experiment: TYR western blot in B16F10 cells; format: cell-based, mouse; details: 10 zM to 10 aM, 24 hours
Protocol: “TYR-ASO 4” was evaluated for its ability to inhibit the expression of TYR protein in B16F10 cells as described below.
B16F10 cells grown in 60 mm culture dish containing 5 mL culture medium were treated with “TYR-ASO 4” for 24 hours at 0 zM (negative control), 10 zM, 100 zM, 1 aM or 10 aM, and subjected to lysis with 200 μL 1× cell lysis buffer (Cat. No. 9803, Cell Signaling Tech) supplemented with 1× protease inhibitors cocktail (Cat. No. P8340, Sigma). 200 μL of each lysate was mixed with 100 μL 5× sample buffer, and boiled at 100° C. for 5 min. 20 μL of each lysate was subjected to electrophoretic separation on a 4-15% gradient TGX gel (Cat No. 456-1086, Bio-Rad), and protein transfer onto a 0.45 μm PVDF membrane. The membrane was probed with an anti-TYR antibody (Cat. No. 9319, Cell Signaling Tech) and an anti-3-actin antibody (Cat. No. a3845, Sigma).

[6] = test system: melanogenesis in B16F10 cells; experiment: Melanin content (melanogenesis) in B16F10 cells; format: cell-based, mouse; details: 1 to 1,000 aM, 24 hours
Protocol: “TYR-ASO 4” was evaluated for its ability to inhibit the melanogenesis in B16F10 cells as described below.
B16F10 cells grown in 60 mm culture dish containing 5 mL culture medium were treated either with “TYR-ASO 4” at 0 (negative control) or 1 to 1,000 aM, or with 10 or 100 μg/mL arbutin as a positive control. (2 culture dishes per dose) 24 hours later, the cells were subjected to lysis with 200 μL 1N NaOH. Each lysate was collected in 1.5 mL e-tube, and kept overnight at room temperature. The melanin content in each lysate was determined by absorbance at 475 nm on an ELISA reader. The experiment was repeated four times using cells at different passage. The four sets of the melanin content data were pooled for statistical analysis by student's t-test against the melanin content without treatment (negative control).

Fethoc-CA(5)G-ACA(5)-ATC(1O2)-TG(6)T-A(5)-NH2 (antisense CAGACAATCTGTA; chemistry not fully specified) [TYR-ASO 1]
decrease of full-length TYR mRNA level (qPCR) [1]: ~30% | Tm Value, 10-mer DNA against C-Terminal [2]: 73.0 °C | Tm Value, 10-mer DNA against N-Terminal [2]: 78.0 °C

Fethoc-CA(5)A-A(5)TG-A(5)TC(1O2)-TG(6)T-G-NH2 (antisense CAAATGATCTGTG; chemistry not fully specified) [TYR-ASO 4]
TYR exon skipping by nested PCR [3]: yielded essentially only the splice variant TYR mRNA lacking exons 2 and 3 | decrease of full-length TYR mRNA level (qPCR) [4]: ~40% | TYR protein level (western blot) [5]: considerably higher in the lysates of the negative control | Tm Value, 10-mer DNA against C-Terminal [2]: 72.0 °C | Tm Value, 10-mer DNA against N-Terminal [2]: 72.0 °C | decrease of melanin content [6]: ~15%

— US12624068B2, “Exon skipping by peptide nucleic acid derivatives” (OliPass Corporation, priority 2016, dated 2026)
